# In patent US11786503B2, “Pharmaceutical compositions and methods for countering chemotherapy induced cardiotoxicity” (Auransa Inc., priority 2016, dated 2023):
# Like-named read-outs stand apart in the source and are kept apart here.
# Assays:
# [1] = target: T1, TOPOIIα (Homo sapiens, UniProt P11388); test: kDNA decatenation assay, TOPOIIα; assay type: biochemical; details: for TOPOIIα inhibition, in words: decatenation assay;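 for all read-outs here: kDNA incubated with one unit of TOPOIIα at 37 °C for 30 min, decatenated product resolved on 1% agarose gel, inhibition from relative band intensity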
# T1 construct: purchased Inspiralis
# T1 sequence (P11388 whole entry): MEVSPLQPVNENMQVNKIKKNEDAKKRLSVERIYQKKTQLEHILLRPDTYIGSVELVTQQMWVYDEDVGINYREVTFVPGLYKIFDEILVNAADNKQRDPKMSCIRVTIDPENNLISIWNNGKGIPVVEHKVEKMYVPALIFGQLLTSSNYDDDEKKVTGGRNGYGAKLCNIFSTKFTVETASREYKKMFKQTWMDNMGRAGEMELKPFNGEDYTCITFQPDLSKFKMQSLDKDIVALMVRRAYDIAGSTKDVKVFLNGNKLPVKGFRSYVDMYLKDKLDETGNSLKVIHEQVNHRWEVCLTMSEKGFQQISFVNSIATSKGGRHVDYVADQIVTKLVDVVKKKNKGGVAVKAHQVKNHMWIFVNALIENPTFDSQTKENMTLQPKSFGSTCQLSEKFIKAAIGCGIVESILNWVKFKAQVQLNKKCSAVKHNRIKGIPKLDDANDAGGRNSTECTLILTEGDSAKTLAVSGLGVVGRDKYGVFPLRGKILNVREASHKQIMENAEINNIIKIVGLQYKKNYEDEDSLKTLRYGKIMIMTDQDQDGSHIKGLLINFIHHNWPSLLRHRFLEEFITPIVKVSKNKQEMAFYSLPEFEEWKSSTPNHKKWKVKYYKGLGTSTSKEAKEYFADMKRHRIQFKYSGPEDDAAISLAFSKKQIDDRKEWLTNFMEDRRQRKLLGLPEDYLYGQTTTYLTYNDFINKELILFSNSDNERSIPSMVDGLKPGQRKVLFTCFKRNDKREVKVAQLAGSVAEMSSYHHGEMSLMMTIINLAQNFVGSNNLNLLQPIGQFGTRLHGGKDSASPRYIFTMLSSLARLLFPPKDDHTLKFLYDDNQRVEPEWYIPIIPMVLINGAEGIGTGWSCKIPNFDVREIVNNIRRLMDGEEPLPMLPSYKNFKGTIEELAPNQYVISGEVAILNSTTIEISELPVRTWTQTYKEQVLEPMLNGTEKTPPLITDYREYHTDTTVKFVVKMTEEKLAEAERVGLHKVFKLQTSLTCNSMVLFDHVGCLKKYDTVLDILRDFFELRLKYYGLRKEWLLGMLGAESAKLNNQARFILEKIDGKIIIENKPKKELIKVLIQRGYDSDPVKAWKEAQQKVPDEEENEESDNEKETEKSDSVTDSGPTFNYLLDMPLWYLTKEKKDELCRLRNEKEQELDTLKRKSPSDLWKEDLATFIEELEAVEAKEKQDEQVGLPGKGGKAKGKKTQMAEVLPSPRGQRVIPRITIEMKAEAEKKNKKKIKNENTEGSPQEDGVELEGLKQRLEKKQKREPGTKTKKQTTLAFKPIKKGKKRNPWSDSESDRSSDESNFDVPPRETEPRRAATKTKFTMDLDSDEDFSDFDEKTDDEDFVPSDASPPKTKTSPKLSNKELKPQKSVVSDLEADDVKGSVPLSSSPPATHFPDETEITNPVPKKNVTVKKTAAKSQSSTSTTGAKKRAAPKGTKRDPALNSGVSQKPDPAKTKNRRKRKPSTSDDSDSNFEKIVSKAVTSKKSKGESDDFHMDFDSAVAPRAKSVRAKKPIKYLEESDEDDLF
# [2] = target: T2, TOPOIIβ (Homo sapiens, UniProt Q02880); test: kDNA decatenation assay, TOPOIIβ; assay type: biochemical; details: for TOPOIIβ inhibition, in words: decatenation assay;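 for all read-outs here: kinetoplast DNA incubated with one unit of TOPOIIβ at 37 °C for 30 min, decatenated product resolved on 1% agarose gel, inhibition scored from relative band intensity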
# T2 construct: purchased Inspiralis
# T2 sequence (Q02880 whole entry): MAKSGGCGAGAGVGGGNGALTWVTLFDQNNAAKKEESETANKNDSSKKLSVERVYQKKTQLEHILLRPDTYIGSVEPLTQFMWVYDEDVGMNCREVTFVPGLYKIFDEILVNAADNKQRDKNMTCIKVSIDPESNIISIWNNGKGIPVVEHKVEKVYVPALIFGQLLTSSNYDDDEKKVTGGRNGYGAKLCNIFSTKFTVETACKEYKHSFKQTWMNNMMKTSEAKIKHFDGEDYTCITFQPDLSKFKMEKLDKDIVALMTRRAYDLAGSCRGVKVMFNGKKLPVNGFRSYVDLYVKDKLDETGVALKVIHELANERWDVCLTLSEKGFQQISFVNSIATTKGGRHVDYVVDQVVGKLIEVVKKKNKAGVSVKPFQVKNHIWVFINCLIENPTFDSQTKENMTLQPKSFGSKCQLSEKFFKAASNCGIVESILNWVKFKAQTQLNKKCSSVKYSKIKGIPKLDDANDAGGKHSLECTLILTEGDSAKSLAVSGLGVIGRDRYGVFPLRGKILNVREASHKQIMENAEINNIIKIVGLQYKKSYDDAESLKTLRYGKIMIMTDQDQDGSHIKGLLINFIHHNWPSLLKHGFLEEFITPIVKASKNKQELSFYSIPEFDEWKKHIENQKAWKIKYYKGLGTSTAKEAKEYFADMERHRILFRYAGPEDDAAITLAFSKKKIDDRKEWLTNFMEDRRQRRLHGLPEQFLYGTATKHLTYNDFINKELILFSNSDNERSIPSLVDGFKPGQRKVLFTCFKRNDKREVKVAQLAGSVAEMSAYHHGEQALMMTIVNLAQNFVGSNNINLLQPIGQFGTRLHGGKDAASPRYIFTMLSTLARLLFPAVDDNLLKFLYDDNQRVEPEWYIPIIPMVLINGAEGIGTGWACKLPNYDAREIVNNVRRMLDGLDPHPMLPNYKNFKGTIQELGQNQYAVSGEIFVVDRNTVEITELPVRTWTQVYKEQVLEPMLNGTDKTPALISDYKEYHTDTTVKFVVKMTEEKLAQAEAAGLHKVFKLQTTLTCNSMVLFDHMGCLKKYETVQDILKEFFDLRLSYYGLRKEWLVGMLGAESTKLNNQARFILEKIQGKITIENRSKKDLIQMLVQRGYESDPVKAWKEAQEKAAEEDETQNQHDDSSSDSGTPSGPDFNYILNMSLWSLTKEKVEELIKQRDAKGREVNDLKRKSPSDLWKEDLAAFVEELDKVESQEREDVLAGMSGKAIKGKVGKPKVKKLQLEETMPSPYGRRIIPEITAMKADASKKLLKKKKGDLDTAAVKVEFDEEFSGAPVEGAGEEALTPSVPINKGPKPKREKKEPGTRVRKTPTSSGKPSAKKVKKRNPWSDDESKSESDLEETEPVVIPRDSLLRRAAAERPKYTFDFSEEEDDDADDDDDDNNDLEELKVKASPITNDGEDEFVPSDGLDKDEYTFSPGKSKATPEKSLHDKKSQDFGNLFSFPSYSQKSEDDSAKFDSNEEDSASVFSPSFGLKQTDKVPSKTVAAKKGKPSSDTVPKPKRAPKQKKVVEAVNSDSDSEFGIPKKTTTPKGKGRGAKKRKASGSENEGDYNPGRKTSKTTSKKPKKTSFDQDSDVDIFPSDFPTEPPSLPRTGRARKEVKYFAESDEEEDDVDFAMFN
# [3] = test system: Doxorubicin treated human iPSC-derived cardiomyocytes; test: iPSC-CM protection by myricetin analogs (Table 1); assay type: cell-based; details: for cardioprotection, in words: Table 1
# [4] = Homo sapiens, iPSC-CM, read-out: iPSC-CM protection EC50
# [5] = Homo sapiens, iPSC-CM, read-out: iPSC-CM protection Max Effect (%)
# [6] = Homo sapiens, iPSC-CM, initial screen at 10 μM or 100 μM, read-out: iPSC-CM protection Max Effect (%), class symbol
# [7] = initial screen at 10 μM or 100 μM
# [8] = approximate, read-out: EC50 for cardioprotection
# [9] = Homo sapiens, iPSC-CM, read-out: iPSC-CM protection Max Effect (%), class symbol
# [10] = read-out: iPSC-CM protection EC50
smiles,measurement,setting,value
"O=c1c(O)c(-c2ccc(O)c(O)c2)oc2ccccc12 [Compound 12, 3,3′,4′-trihydroxyflavone]",TOPIIα Inhibition,[1],−
same,TOPIIβ Inhibition,[2],−
same,Rescue,[3],+
same,EC50,[3]; [4],6.43 µM
same,Emax,[3]; [5],16%
"O=c1c(O)c(-c2ccccc2)oc2cc(O)ccc12 [Compound 20, 3,7-dihydroxyflavone]",Rescue,[3],−
"O=c1c(O)c(-c2ccccc2)oc2ccccc12 [Compound 25, 3-hydroxyflavone]",Rescue,[3],−
same,Emax,[3]; [6],< 30%
"O=c1c(O)c(-c2cccc(O)c2)oc2ccccc12 [Compound 22, 3,3′-dihydroxyflavone]",Rescue,[3],−
same,Emax,[3]; [6],< 30%
"COc1cc(-c2oc3cc(O)cc(O)c3c(=O)c2O)cc(OC)c1OC [3′,4′,5′-O-trimethylmyricetin]","TOPOIIα inhibition, in words",[1],entirely failed to display cardioprotection or TOPOII inhibition
same,"TOPOIIβ inhibition, in words",[2],entirely failed to display cardioprotection or TOPOII inhibition
same,"cardioprotection, in words",[3],entirely failed to display cardioprotection or TOPOII inhibition
"COc1ccc2c(=O)c(O)c(-c3cc(OC)c(OC)c(OC)c3)oc2c1 [Compound 36, 7,3′,4′,5′-O-tetramethylrobinetin]",TOPIIα Inhibition,[1],−
same,TOPIIβ Inhibition,[2],−
same,Rescue,[3],−
same,"iPSC-CM protection Max Effect (%), class symbol",[3]; [7],† (Compounds failed to exhibit >30% protection Max Effect at 10 μM or 100 μM on initial screen.)
COc1c(O)cc(-c2oc3cc(O)cc(O)c3c(=O)c2O)cc1O [4′-O-methylmyricetin],"TOPOIIα inhibition, in words",[1],without TOPOII inhibition
same,"TOPOIIβ inhibition, in words",[2],without TOPOII inhibition
same,"cardioprotection, in words",[3],conferred cardioprotection
same,EC50,[3]; [8],~48.7 µM
O=c1ccoc2ccccc12 [chromone],"TOPOIIα inhibition, in words",[1],Nor did either compound confer TOPOIIβ or a inhibition
same,"TOPOIIβ inhibition, in words",[2],Nor did either compound confer TOPOIIβ or a inhibition
same,"cardioprotection, in words",[3],no positive effect
COc1cc(-c2oc3cc(O)cc(O)c3c(=O)c2O)cc(O)c1O [3′-O-methylmyricetin],"TOPOIIα inhibition, in words",[1],failed to inhibit
same,"TOPOIIβ inhibition, in words",[2],failed to inhibit
same,"cardioprotection, in words",[3],conferred cardioprotection
same,EC50,[3]; [8],~59 µM
"COc1ccc2c(=O)c(OC)c(-c3cc(OC)c(OC)c(OC)c3)oc2c1 [3,7,3′,4′,5′-O-pentamethylrobinetin]","TOPOIIα inhibition, in words",[1],entirely failed to display cardioprotection or TOPOII inhibition
same,"TOPOIIβ inhibition, in words",[2],entirely failed to display cardioprotection or TOPOII inhibition
same,"cardioprotection, in words",[3],entirely failed to display cardioprotection or TOPOII inhibition
"O=c1cc(-c2cc(O)cc(O)c2)oc2ccccc12 [Compound 26, 3′,5′-dihydroxyflavone]",Rescue,[3],−
same,Emax,[3]; [9],< 30%
"O=c1cc(-c2ccc(O)c(O)c2)oc2cc(O)cc(O)c12 [Compound 9, 5,7,3′,4′-tetrahydroxyflavone]",TOPIIα Inhibition,[1],−
same,TOPIIβ Inhibition,[2],−
same,EC50,[3]; [4],9.67 µM
same,Emax,[3]; [5],62%
"COc1cc(-c2oc3cc(O)ccc3c(=O)c2O)cc(OC)c1OC [Compound 35, 3',4',5'-O-trimethylrobinetin]",TOPIIα Inhibition,[1],−
same,"TOPOIIα inhibition, in words",[1],entirely failed to display cardioprotection or TOPOII inhibition
same,TOPIIβ Inhibition,[2],−
same,"TOPOIIβ inhibition, in words",[2],entirely failed to display cardioprotection or TOPOII inhibition
same,Rescue,[3],−
same,"cardioprotection, in words",[3],entirely failed to display cardioprotection or TOPOII inhibition
same,"iPSC-CM protection Max Effect (%), class symbol",[3]; [7],† (Compounds failed to exhibit >30% protection Max Effect at 10 μM or 100 μM on initial screen.)
"COc1cc(-c2oc3cc(O)cc(O)c3c(=O)c2O)cc(O)c1O [Compound 31, 3′-O-methylmyricetin]",TOPIIα Inhibition,[1],−
same,TOPIIβ Inhibition,[2],−
same,Rescue,[3],+
same,iPSC-CM protection Max Effect (%),[3],76%
same,EC50,[3]; [10],58.7 µM
"O=c1c(O)c(-c2ccc(O)c(O)c2)oc2cc(O)ccc12 [Compound 5, 3,7,3′,4′-tetrahydroxyflavone]",EC50,[3]; [4],16.3 µM
same,Emax,[3]; [5],36%
"O=c1c(O)c(-c2ccccc2)oc2cc(O)cc(O)c12 [Compound 19, 3,5,7-trihydroxyflavone]",Rescue,[3],−
same,Emax,[3]; [6],< 30%
"COc1ccc2c(=O)c(O)c(-c3cc(OC)c(OC)c(OC)c3)oc2c1 [7,3′,4′,5′-O-tetramethylrobinetin]","TOPOIIα inhibition, in words",[1],entirely failed to display cardioprotection or TOPOII inhibition
same,"TOPOIIβ inhibition, in words",[2],entirely failed to display cardioprotection or TOPOII inhibition
same,"cardioprotection, in words",[3],entirely failed to display cardioprotection or TOPOII inhibition
"O=C1c2ccc(O)cc2OC(c2cc(O)c(O)c(O)c2)C1O (stereo in doubt) [Compound 30, dihydrorobinetin]",TOPIIα Inhibition,[1],−
same,"TOPOIIα inhibition, in words",[1],no inhibitory activity
same,TOPIIβ Inhibition,[2],−
same,"TOPOIIβ inhibition, in words",[2],no inhibitory activity
same,iPSC-CM protection Max Effect (%),[3],53%
same,EC50,[3]; [10],14 µM
"COc1cc(-c2oc3cc(O)cc(O)c3c(=O)c2O)cc(OC)c1OC [Compound 34, 3′,4′,5′-O-trimethylmyricetin]",TOPIIα Inhibition,[1],−
same,TOPIIβ Inhibition,[2],−
same,Rescue,[3],−
same,"iPSC-CM protection Max Effect (%), class symbol",[3]; [7],† (Compounds failed to exhibit >30% protection Max Effect at 10 μM or 100 μM on initial screen.)
"O=c1c(O)c(-c2cccc(O)c2)oc2cc(O)ccc12 [Compound 18, 3,7,3′-trihydroxyflavone]",Rescue,[3],−
same,Emax,[3]; [6],< 30%
"O=c1ccoc2cc(O)ccc12 [Compound 38, 7-hydroxy-4-chromone]",TOPIIα Inhibition,[1],−
same,TOPIIβ Inhibition,[2],−
same,Rescue,[3],−
same,Emax,[3]; [6],< 30%
"O=c1cc(-c2cc(O)c(O)c(O)c2)oc2ccccc12 [3′,4′,5′-trihydroxyflavone]",EC50,"[3]; Homo sapiens, Cardiomyocyte, read-out: potency for cardioprotection",≥ 30 µM
"O=c1cc(-c2ccccc2)oc2cc(O)ccc12 [Compound 24, 7-hydroxyflavone]",Rescue,[3],−
same,Emax,[3]; [9],< 30%
"O=c1cc(-c2ccccc2)oc2ccccc12 [Compound 28, flavone]",Rescue,[3],−
same,Emax,[3]; [6],< 30%
"O=c1cc(-c2cccc(O)c2)oc2ccccc12 [Compound 27, 3′-hydroxyflavone]",Rescue,[3],−
same,Emax,[3]; [6],< 30%
"O=c1cc(-c2ccccc2)oc2cc(O)cc(O)c12 [Compound 23, 5,7-dihydroxyflavone]",Rescue,[3],−
same,Emax,[3]; [6],< 30%
"O=c1cc(-c2ccc(O)cc2)oc2ccccc12 [Compound 17, 4′-hrydroxyflavone]",Rescue,[3],−
same,"iPSC-CM protection Max Effect (%), class symbol",[3]; [7],† (Compounds failed to exhibit >30% protection Max Effect at 10 μM or 100 μM on initial screen.)
"COc1cc(-c2oc3cc(O)cc(O)c3c(=O)c2O)cc(OC)c1O [3′,5′-O-dimethylmyricetin]","TOPOIIα inhibition, in words",[1],neither cardioprotection nor TOPOIIα and TOPOIIβ inhibition
same,"TOPOIIβ inhibition, in words",[2],neither cardioprotection nor TOPOIIα and TOPOIIβ inhibition
same,"cardioprotection, in words",[3],neither cardioprotection nor TOPOIIα and TOPOIIβ inhibition
"O=c1cc(-c2ccc(O)cc2)oc2cc(O)ccc12 [Compound 15, 7,4′-dihydroxyflavone]",Rescue,[3],−
same,Emax,[3]; [6],< 30%
"O=c1cc(-c2ccc(O)c(O)c2)oc2ccccc12 [Compound 14, 3′,4′-dihydroxyflavone]",Rescue,[3],−
same,Emax,[3]; [6],< 30%
"O=c1cc(-c2ccc(O)cc2)oc2cc(O)cc(O)c12 [Compound 13, 5,7,4′,-trihydroxyflavone]",Rescue,[3],−
same,Emax,[3]; [6],< 30%
"O=c1cc(-c2cccc(O)c2)oc2cc(O)ccc12 [Compound 21, 7,3′-dihydroxyflavone]",Rescue,[3],−
same,Emax,[3]; [6],< 30%
"COc1ccc2c(=O)c(OC)c(-c3cc(OC)c(OC)c(OC)c3)oc2c1 [Compound 37, 3,7,3′,4′,5′-O-pentamethylrobinetin]",TOPIIα Inhibition,[1],−
same,TOPIIβ Inhibition,[2],−
same,Rescue,[3],−
same,"iPSC-CM protection Max Effect (%), class symbol",[3]; [7],† (Compounds failed to exhibit >30% protection Max Effect at 10 μM or 100 μM on initial screen.)
"O=c1c(O)c(-c2ccc(O)cc2)oc2ccccc12 [Compound 16, 3,4′-dihydroxyflavone]",Rescue,[3],−
same,Emax,[3]; [6],< 30%
